“And” between values parts separate entries of the source, which are not always exact repeats. Equal values may be shown once. Results filed as inconclusive are left out.
Test system: nude mice, LX-1 lung xenograft intrarenal, tumor weight T/C
Experiment: NCI In Vivo Anticancer Drug Screen. Data for tumor model Human Lung LX-1 Xenograft (intrarenal inoculation) in NU/NU Swiss (nude) mice
Details: endpoint: mean tumor weight change, higher = larger tumour
Procedure, shortened: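 Activity was scored by measuring tumors in treated animals and in vehicle controls, then reporting the treated result as a fraction of the control result.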

[1] = dose: 300.0 mg/kg/injection, schedule: Q04DX003 (sc), vehicle: saline with Tween-80
[2] = dose: 600.0 mg/kg/injection, schedule: Q04DX003 (sc), vehicle: saline with Tween-80
[3] = dose: 1200.0 mg/kg/injection, schedule: Q04DX003 (sc), vehicle: saline with Tween-80
[4] = dose: 2400.0 mg/kg/injection, schedule: Q04DX003 (sc), vehicle: saline with Tween-80
[5] = dose: 300.0 mg/kg/injection, schedule: Q04DX003 (sc), vehicle: saline
[6] = dose: 600.0 mg/kg/injection, schedule: Q04DX003 (sc), vehicle: saline
[7] = dose: 1200.0 mg/kg/injection, schedule: Q04DX003 (sc), vehicle: saline
[8] = dose: 2.0 mg/kg/injection, schedule: Q01DX010 (sc), vehicle: saline
[9] = dose: 4.0 mg/kg/injection, schedule: Q01DX010 (sc), vehicle: saline

Question: For `CCCN1COC(OCC)C(C)(C)C1` (centres undefined), which T/C (dose: 150.0 mg/kg/injection, schedule: Q04DX003 (sc), vehicle: saline with Tween-80) is on record?
Answer: 92 % of control

Question: And the T/C [1]?
Answer: 90 % of control

Question: And the T/C [2]?
Answer: 106 % of control

Question: And the T/C [3]?
Answer: 107 % of control

Question: Which T/C (dose: 400.0 mg/kg/injection, schedule: Q04DX003 (sc), vehicle: other) does the source give for `CCCCN(CCCC)C(Cl)=Nc1ccccc1` here?
Answer: 116 % of control

Question: Which results are given for `O=C(Nc1cccc(Cl)c1)ON1C(=O)C2C(C1=O)C1(Cl)C(Cl)C(Cl)C2(Cl)C1(Cl)Cl` (centres undefined)?
Answer: T/C [1]: 81 % of control; T/C [2]: 85 % of control; T/C [3]: 83 % of control

Question: What does the source list for `C/C=C/C=C/c1cc2cc3c(c(O)c2c(=O)[nH]1)C1(CC3)C(O)=c2c(=O)c3c(=O)cc(OC)c(=O)c=3c(=O)c2=C1O` (centres undefined)?
Answer: T/C (dose: 0.5 mg/kg/injection, schedule: Q01DX010 (sc), vehicle: DMSO): 221 % of control; T/C (dose: 1.0 mg/kg/injection, schedule: Q01DX010 (sc), vehicle: DMSO): 162 % of control; T/C (dose: 2.0 mg/kg/injection, schedule: Q01DX010 (sc), vehicle: DMSO): 92 % of control and 104 % of control; T/C (dose: 4.0 mg/kg/injection, schedule: Q01DX010 (sc), vehicle: DMSO): 103 % of control and 111 % of control; T/C (dose: 8.0 mg/kg/injection, schedule: Q01DX010 (sc), vehicle: DMSO): 106 % of control; T/C (dose: 16.0 mg/kg/injection, schedule: Q01DX010 (sc), vehicle: DMSO): 86 % of control

Question: With `ClC(Cl)(Cl)C1=NCc2nnn(Cc3ccccc3)c2N1` as the molecule, how does the T/C [1] read?
Answer: 72 % of control

Question: And the T/C [2]?
Answer: 67 % of control

Question: What about the T/C [3] of the same molecule?
Answer: 90 % of control

Question: And the T/C [4]?
Answer: 36 % of control

Question: For `CC(=O)OC1=NC(C)c2c1cc(OC(C)=O)[nH]c2=O` (centres undefined), which T/C (dose: 150.0 mg/kg/injection, schedule: Q04DX003 (sc), vehicle: Klucel (hydroxypropylcellulose) (HPC)) is on record?
Answer: 90 % of control

Question: And the T/C (dose: 300.0 mg/kg/injection, schedule: Q04DX003 (sc), vehicle: Klucel (hydroxypropylcellulose) (HPC))?
Answer: 87 % of control

Question: And the T/C (dose: 600.0 mg/kg/injection, schedule: Q04DX003 (sc), vehicle: Klucel (hydroxypropylcellulose) (HPC))?
Answer: 87 % of control

Question: What about the T/C (dose: 1200.0 mg/kg/injection, schedule: Q04DX003 (sc), vehicle: Klucel (hydroxypropylcellulose) (HPC)) of the same molecule?
Answer: 74 % of control

Question: For `O=c1ncccn1[C@@H]1O[C@H](CO)[C@H](O)C1O` (some centres undefined), which T/C [5] is on record?
Answer: 100 % of control

Question: What about the T/C [6] of the same molecule?
Answer: 56 % of control

Question: And the T/C [7]?
Answer: 55 % of control

Question: What about the T/C (dose: 2400.0 mg/kg/injection, schedule: Q04DX003 (sc), vehicle: saline) of the same molecule?
Answer: 47 % of control

Question: What does the source list for `CN(Cc1cnc2nc(N)nc(N)c2n1)c1ccc(C(=O)N[C@@H](CCC(=O)O)C(=O)O)cc1`?
Answer: T/C (dose: 0.5 mg/kg/injection, schedule: Q01DX010 (sc), vehicle: sodium bicarbonate): 74 % of control; T/C (dose: 1.0 mg/kg/injection, schedule: Q01DX010 (sc), vehicle: sodium bicarbonate): 87 % of control; T/C (dose: 2.0 mg/kg/injection, schedule: Q01DX010 (sc), vehicle: sodium bicarbonate): 18 % of control

Question: What does the source list for `CC1=C(/C=C/C(C)=C/C=C/C(C)=C/CO)C(C)(C)CCC1`?
Answer: T/C (dose: 50.0 mg/kg/injection, schedule: Q04DX003 (sc), vehicle: saline with Tween-80): 105 % of control; T/C (dose: 100.0 mg/kg/injection, schedule: Q04DX003 (sc), vehicle: saline with Tween-80): 150 % of control; T/C (dose: 400.0 mg/kg/injection, schedule: Q04DX003 (sc), vehicle: saline with Tween-80): 111 % of control

Question: How did the T/C (dose: 50.0 mg/kg/injection, schedule: Q04DX003 (sc), vehicle: Klucel (hydroxypropylcellulose) (HPC)) turn out when `CN(C(=S)S(=O)(=O)C12CC3CC(CC(C3)C1)C2)c1ccccc1` was run?
Answer: 164 % of control

Question: What about the T/C (dose: 100.0 mg/kg/injection, schedule: Q04DX003 (sc), vehicle: Klucel (hydroxypropylcellulose) (HPC)) of the same molecule?
Answer: 161 % of control

Question: And the T/C (dose: 400.0 mg/kg/injection, schedule: Q04DX003 (sc), vehicle: Klucel (hydroxypropylcellulose) (HPC))?
Answer: 176 % of control

Question: Which T/C [8] does the source give for `COc1cc([C@@H]2c3cc4c(cc3[C@@H](OC3OC5COC(C)OC5C(O)C3O)[C@H]3COC(=O)[C@H]23)OCO4)cc(OC)c1O` (some centres undefined) here?
Answer: 153 % of control

Question: And the T/C [9]?
Answer: 80 % of control

Question: What about the T/C (dose: 8.0 mg/kg/injection, schedule: Q01DX010 (sc), vehicle: saline) of the same molecule?
Answer: 85 % of control

Question: And the T/C (dose: 16.0 mg/kg/injection, schedule: Q01DX010 (sc), vehicle: saline)?
Answer: 31 % of control

Question: With `CN(C)[C@@H]1C(=O)C(C(N)=O)=C(O)[C@@]2(O)C(=O)C3=C(O)c4c(O)ccc(Cl)c4[C@@](C)(O)[C@H]3C[C@@H]12` as the molecule, how does the T/C [5] read?
Answer: 81 % of control

Question: And the T/C [6]?
Answer: 200 % of control

Question: What about the T/C [7] of the same molecule?
Answer: 220 % of control

Question: How did the T/C (dose: 0.5 mg/kg/injection, schedule: Q01DX010 (sc), vehicle: saline) turn out when `COc1cccc2c1C(=O)c1c(O)c3c(c(O)c1C2=O)C[C@@](O)(C(C)=O)C[C@@H]3OC1CC(N)C(O)C(C)O1` (some centres undefined) was run?
Answer: 45 % of control

Question: What about the T/C (dose: 1.0 mg/kg/injection, schedule: Q01DX010 (sc), vehicle: saline) of the same molecule?
Answer: 12 % of control

Question: And the T/C [8]?
Answer: 19 % of control

Question: What about the T/C [9] of the same molecule?
Answer: 21 % of control

Question: What does the source list for `COc1cccc2c1C(=O)c1c(O)c3c(c(O)c1C2=O)C[C@@](O)(C(C)=O)C[C@@H]3OC1CC(N(C)C)C(O)C(C)O1` (some centres undefined)?
Answer: T/C (dose: 2.0 mg/kg/injection, schedule: Q01DX010 (sc), vehicle: water): 200 % of control; T/C (dose: 4.0 mg/kg/injection, schedule: Q01DX010 (sc), vehicle: water): 80 % of control; T/C (dose: 6.0 mg/kg/injection, schedule: Q04DX003 (sc), vehicle: water): 59 % of control; T/C (dose: 12.0 mg/kg/injection, schedule: Q04DX003 (sc), vehicle: water): 88 % of control

Question: For `COCC1OC2OC3C(COC)OC(OC4C(COC)OC(OC5C(COC)OC(OC6C(COC)OC(OC7C(COC)OC(OC8C(COC)OC(OC1C(O)C2O)C(O)C8O)C(O)C7O)C(O)C6O)C(O)C5O)C(O)C4O)C(O)C3O` (centres undefined) (tested in a mixture with another compound), which T/C (dose: 200.0 mg/kg/injection, schedule: Q04DX003 (sc), vehicle: Klucel (hydroxypropylcellulose) (HPC)) is on record?
Answer: 156 % of control

Question: With `O=C(O)CCCCCCCC(=O)O` as the molecule, how does the T/C (dose: 150.0 mg/kg/injection, schedule: Q04DX003 (sc), vehicle: distilled water + Tween-80) read?
Answer: 105 % of control

Question: What about the T/C (dose: 300.0 mg/kg/injection, schedule: Q04DX003 (sc), vehicle: distilled water + Tween-80) of the same molecule?
Answer: 79 % of control

Question: And the T/C (dose: 600.0 mg/kg/injection, schedule: Q04DX003 (sc), vehicle: distilled water + Tween-80)?
Answer: 60 % of control

Question: And the T/C (dose: 1200.0 mg/kg/injection, schedule: Q04DX003 (sc), vehicle: distilled water + Tween-80)?
Answer: 50 % of control

Question: How did the T/C (dose: 25.0 mg/kg/injection, schedule: Q01DX010 (sc), vehicle: Klucel (hydroxypropylcellulose) (HPC)) turn out when `CC(=O)O[C@H]1C(=O)[C@@]2(C)[C@H]([C@H](OC(=O)c3ccccc3)[C@]3(O)C[C@H](OC(=O)[C@H](O)[C@@H](NC(=O)c4ccccc4)c4ccccc4)C(C)=C1C3(C)C)[C@]1(OC(C)=O)CO[C@@H]1C[C@@H]2O` was run?
Answer: 40 % of control

Question: What about the T/C (dose: 400.0 mg/kg/injection, schedule: Q01DX010 (sc), vehicle: Klucel (hydroxypropylcellulose) (HPC)) of the same molecule?
Answer: 14 % of control

Question: How did the T/C (dose: 3.13 mg/kg/injection, schedule: Q04DX003 (sc), vehicle: saline with Tween-80) turn out when `C[CH2][Sn]([CH2]C)([O]S(C)(=O)=O)[O]S(C)(=O)=O` was run?
Answer: 107 % of control

Question: And the T/C (dose: 6.25 mg/kg/injection, schedule: Q04DX003 (sc), vehicle: saline with Tween-80)?
Answer: 109 % of control

Question: And the T/C (dose: 12.5 mg/kg/injection, schedule: Q04DX003 (sc), vehicle: saline with Tween-80)?
Answer: 102 % of control

Question: What about the T/C (dose: 25.0 mg/kg/injection, schedule: Q04DX003 (sc), vehicle: saline with Tween-80) of the same molecule?
Answer: 99 % of control

Question: `CCN(CC)CCNc1ccc(C)c2sc3ccc(O)cc3c(=O)c12` was tested. Which T/C [1] did it give?
Answer: 71 % of control

Question: And the T/C [2]?
Answer: 98 % of control

Question: And the T/C [3]?
Answer: 83 % of control

Question: And the T/C [4]?
Answer: 52 % of control

Question: With `O=C1OC(C(O)CO)C(O)=C1O` (centres undefined) as the molecule, how does the T/C (dose: 400.0 mg/kg/injection, schedule: Q01DX010 (sc), vehicle: saline) read?
Answer: 205 % of control

Question: And the T/C (dose: 800.0 mg/kg/injection, schedule: Q01DX010 (sc), vehicle: saline)?
Answer: 110 % of control

Question: What about the T/C (dose: 1600.0 mg/kg/injection, schedule: Q01DX010 (sc), vehicle: saline) of the same molecule?
Answer: 153 % of control

Question: How did the T/C (dose: 50.0 mg/kg/injection, schedule: Q01DX010 (sc), vehicle: saline with Tween-80) turn out when `O=c1[nH]c(=O)n(C2CC(O)C(CO)O2)cc1I` (centres undefined) was run?
Answer: 71 % of control

Question: How did the T/C (dose: 25.0 mg/kg/injection, schedule: Q01DX010 (sc), vehicle: water) turn out when `COc1cccc2c1C(=O)c1c(O)c3c(c(O)c1C2=O)C[C@@](O)(C(C)=O)C[C@@H]3OC1CC(N(Cc2ccccc2)Cc2ccccc2)C(O)C(C)O1` (some centres undefined) was run?
Answer: 64 % of control

Question: Which T/C (dose: 100.0 mg/kg/injection, schedule: Q04DX003 (sc), vehicle: suspension in saline) does the source give for `O=C[C@@H](CO)O[C@H](C=O)n1cnc2c(=O)[nH]cnc21` here?
Answer: 71 % of control

Question: And the T/C (dose: 200.0 mg/kg/injection, schedule: Q04DX003 (sc), vehicle: suspension in saline)?
Answer: 57 % of control

Question: What about the T/C (dose: 400.0 mg/kg/injection, schedule: Q04DX003 (sc), vehicle: suspension in saline) of the same molecule?
Answer: 59 % of control

Question: What about the T/C (dose: 800.0 mg/kg/injection, schedule: Q04DX003 (sc), vehicle: suspension in saline) of the same molecule?
Answer: 54 % of control

— PubChem BioAssay AID264 (DTP/NCI, 2004)
